System: 354836-022-R-J1-PDC multicell spheroid viability
Test: Anticancer human tumor 354836-022-R-J1-PDC patient-derived head and neck squamous cell carcinoma cell line growth inhibition [PI3K]
Details: for IC50: curve of first compound; for viability, T/C: stronger effect = lower value
In short: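 Stroma-containing spheroids: tumor line, pooled-donor HUVEC, hMSC. Treatments: targeted agents with PI3K inhibitors. Dosing: clinically relevant, half-log spacing, 10 microM ceiling without known Cmax. Read-out: cell viability.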

[1] = second compound 0.00316 µM, first compound 0.000316 µM
[2] = second compound 0.00316 µM, first compound 0.001 µM
[3] = second compound 0.00316 µM, first compound 0.00316 µM
[4] = second compound 0.00316 µM, first compound 0.01 µM
[5] = second compound 0.00316 µM, first compound 0.0316 µM
[6] = second compound 0.00316 µM, first compound 0.1 µM
[7] = second compound 0.01 µM, first compound 0.000316 µM
[8] = second compound 0.01 µM, first compound 0.001 µM
[9] = second compound 0.01 µM, first compound 0.00316 µM
[10] = second compound 0.01 µM, first compound 0.01 µM
[11] = second compound 0.01 µM, first compound 0.0316 µM
[12] = second compound 0.01 µM, first compound 0.1 µM
[13] = second compound 0.0316 µM, first compound 0.000316 µM
[14] = second compound 0.0316 µM, first compound 0.001 µM
[15] = second compound 0.0316 µM, first compound 0.00316 µM
[16] = second compound 0.0316 µM, first compound 0.01 µM
[17] = second compound 0.0316 µM, first compound 0.0316 µM
[18] = second compound 0.0316 µM, first compound 0.1 µM
[19] = second compound 0.1 µM, first compound 0.000316 µM
[20] = second compound 0.1 µM, first compound 0.001 µM
[21] = second compound 0.1 µM, first compound 0.00316 µM
[22] = second compound 0.1 µM, first compound 0.01 µM
[23] = second compound 0.1 µM, first compound 0.0316 µM
[24] = second compound 0.1 µM, first compound 0.1 µM
[25] = second compound 0.316 µM, first compound 0.000316 µM
[26] = second compound 0.316 µM, first compound 0.001 µM
[27] = second compound 0.316 µM, first compound 0.00316 µM
[28] = second compound 0.316 µM, first compound 0.01 µM
[29] = second compound 0.316 µM, first compound 0.0316 µM
[30] = second compound 0.316 µM, first compound 0.1 µM
[31] = second compound 1 µM, first compound 0.000316 µM
[32] = second compound 1 µM, first compound 0.001 µM
[33] = second compound 1 µM, first compound 0.00316 µM
[34] = second compound 1 µM, first compound 0.01 µM
[35] = second compound 1 µM, first compound 0.0316 µM
[36] = second compound 1 µM, first compound 0.1 µM
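Further: spheroids exposed to agents for seven days before the viability read.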

## CC(=O)c1c(C)c2cnc(Nc3ccc(N4CCNCC4)cn3)nc2n(C2CCCC2)c1=O + COc1c(OCCCN2CCOCC2)ccc2c3n(c(=NC(=O)c4cnc(N)nc4)nc12)CCN3
Second compound 0.00316 µM
  IC50: > 100 nM
Second compound 0.01 µM
  IC50: > 100 nM
Second compound 0.0316 µM
  IC50: > 100 nM
Second compound 0.1 µM
  IC50: > 100 nM
Second compound 0.316 µM
  IC50: < 0.316 nM
Second compound 1 µM
  IC50: < 0.316 nM
[1]
  viability, T/C: 115%
[2]
  viability, T/C: 116%
[3]
  viability, T/C: 119%
[4]
  viability, T/C: 113%
[5]
  viability, T/C: 99.9%
[6]
  viability, T/C: 107%
[7]
  viability, T/C: 107%
[8]
  viability, T/C: 121%
[9]
  viability, T/C: 93.7%
[10]
  viability, T/C: 99.1%
[11]
  viability, T/C: 85.1%
[12]
  viability, T/C: 105%
[13]
  viability, T/C: 78.7%
[14]
  viability, T/C: 92.1%
[15]
  viability, T/C: 81.3%
[16]
  viability, T/C: 82.2%
[17]
  viability, T/C: 95.9%
[18]
  viability, T/C: 83.3%
[19]
  viability, T/C: 48.8%
[20]
  viability, T/C: 54.3%
[21]
  viability, T/C: 57.6%
[22]
  viability, T/C: 61.3%
[23]
  viability, T/C: 55.7%
[24]
  viability, T/C: 59.6%
[25]
  viability, T/C: 15.9%
[26]
  viability, T/C: 16.5%
[27]
  viability, T/C: 12.5%
[28]
  viability, T/C: 14.6%
[29]
  viability, T/C: 15.2%
[30]
  viability, T/C: 14.1%
[31]
  viability, T/C: 2.1%
[32]
  viability, T/C: 1.43%
[33]
  viability, T/C: 1.73%
[34]
  viability, T/C: 2.18%
[35]
  viability, T/C: 2.06%
[36]
  viability, T/C: 1.39%

## CC(C)n1nc(-c2ccc3oc(N)nc3c2)c2c(N)ncnc21 + COc1c(OCCCN2CCOCC2)ccc2c3n(c(=NC(=O)c4cnc(N)nc4)nc12)CCN3
Second compound 0.00316 µM
  IC50: 11.4 nM
Second compound 0.01 µM
  IC50: 10.7 nM
Second compound 0.0316 µM
  IC50: 9.09 nM
Second compound 0.1 µM
  IC50: < 0.316 nM
Second compound 0.316 µM
  IC50: < 0.316 nM
Second compound 1 µM
  IC50: < 0.316 nM
[1]
  viability, T/C: 103%
[2]
  viability, T/C: 70.8%
[3]
  viability, T/C: 77.9%
[4]
  viability, T/C: 50.9%
[5]
  viability, T/C: 33%
[6]
  viability, T/C: 3.49%
[7]
  viability, T/C: 93.3%
[8]
  viability, T/C: 86.8%
[9]
  viability, T/C: 67.7%
[10]
  viability, T/C: 52.3%
[11]
  viability, T/C: 28.3%
[12]
  viability, T/C: 3.55%
[13]
  viability, T/C: 67%
[14]
  viability, T/C: 70.8%
[15]
  viability, T/C: 61.7%
[16]
  viability, T/C: 49%
[17]
  viability, T/C: 23.5%
[18]
  viability, T/C: 2.77%
[19]
  viability, T/C: 49%
[20]
  viability, T/C: 48.2%
[21]
  viability, T/C: 36.4%
[22]
  viability, T/C: 27.4%
[23]
  viability, T/C: 11.9%
[24]
  viability, T/C: 2.07%
[25]
  viability, T/C: 16.2%
[26]
  viability, T/C: 9.69%
[27]
  viability, T/C: 8.47%
[28]
  viability, T/C: 10.1%
[29]
  viability, T/C: 3.38%
[30]
  viability, T/C: 0.76%
[31]
  viability, T/C: 1.52%
[32]
  viability, T/C: 1.5%
[33]
  viability, T/C: 1.64%
[34]
  viability, T/C: 1.22%
[35]
  viability, T/C: 0.82%
[36]
  viability, T/C: 0.62%
